This is an account of results in patent publication US6967212B2, “Substituted azole acid derivatives useful as antidiabetic and antiobesity agents and method” (Bristol-Myers Squibb Company, priority 2001, dated 2005).

Marks after values point to notes of the source that are not given here.

Assay [1] relates to Gene expression in WAT. Nature of the assay: Gene expression profiling of white adipose tissue of treated db/db mice. As to conditions: obese diabetic db/db mice. The format is in vivo. The source says:
Examples of such genes include adipophilin and keratinocyte fatty acid binding protein, the gene products of these genes are involved in intracellular fatty acid trafficking).
Adipose (fat) tissue is a major place of synthesis of PAI-1, a risk factor for thrombosis, angiotensinogen precursor, a risk factor for hypertension and renin, a risk factor for hypertension (see Ahima and Flier, TEM, 11: 327-332, 2000).

For assay [2], the target named is T1, human PPARα ligand binding domain (Homo sapiens, UniProt Q07869).
T1 sequence (Q07869 239-466 limits assumed): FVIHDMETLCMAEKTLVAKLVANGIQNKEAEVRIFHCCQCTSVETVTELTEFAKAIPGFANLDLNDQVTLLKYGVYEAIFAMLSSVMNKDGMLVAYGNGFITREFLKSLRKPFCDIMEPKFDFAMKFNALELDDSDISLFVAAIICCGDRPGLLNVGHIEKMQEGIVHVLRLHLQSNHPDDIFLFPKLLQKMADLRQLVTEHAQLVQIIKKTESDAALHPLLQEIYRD
Description: PPARα ligand binding study with purified ligand binding domain. To be noted: competition with labeled PPARα ligand BMS-compound B. The source says:
FIG. 1B: Illustrates the binding of a labeled authentic PPARα ligand (BMS-compound B) to human PPARα binding domain.
Compound Y is a compound synthesized by the scheme outlined in Example 1 herein. […] The in vitro ligand binding studies with purified ligand binding domain thus show the ability of Compound Y to bind potently to both PPARγ and PPARα. It is however, well known for the nuclear hormone receptor family of transcription factors that (PPARs are members of this family) that a compound which potently binds to (i.e. a ligand) can act as an agonist (ligand which activates) and an antagonist (ligand which inactivates the receptor).

For assay [3], the target named is T2, human PPARγ ligand binding domain (Homo sapiens, UniProt P37231).
T2 sequence (P37231 238-503 limits assumed): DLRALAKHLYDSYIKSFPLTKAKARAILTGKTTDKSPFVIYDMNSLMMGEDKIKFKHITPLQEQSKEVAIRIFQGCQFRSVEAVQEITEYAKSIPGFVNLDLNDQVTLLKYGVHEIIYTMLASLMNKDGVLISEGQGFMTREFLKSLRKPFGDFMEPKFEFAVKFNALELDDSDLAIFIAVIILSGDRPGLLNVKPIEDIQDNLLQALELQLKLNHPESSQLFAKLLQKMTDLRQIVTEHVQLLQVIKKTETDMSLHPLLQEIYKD
Nature of the assay: PPARγ ligand binding study with purified ligand binding domain. As to conditions: competition with labeled PPARγ ligand BMS-compound A. The source says: Compound Y is a compound synthesized by the scheme outlined in Example 1 herein.

Assay [4] relates to mouse 3T3-L1 pre-adipocytes. Description: Inhibition of rosiglitazone induced differentiation of 3T3-L1 pre-adipocytes (glycerol release). The format is cell-based. As to conditions: rosiglitazone induced differentiation of 3T3-L1 cells. The method, then: PPARγ has been considered a major trigger for the adipocyte differentiation process (see Tontonoz et al., Current Biology, 571-576, 1995).
5×10^5 3T3-L1 cells per plate were added to 96 well plates and cultured in DMEM-high glucose and 10% FBS medium for two days, before induction. Cells were induced for 48 hr with 1 μm dexamethasone, 5 μg/ml insulin, and […] isobutylmethylxanthine (IBMX) in the same medium. […] After a total of 5 days incubation, 4 μl of media from each well were collected and diluted into 40 μl of H2O in 96 well ELISA plate, 300 μl of Triglycerides Blank Reagent (Bayer Diagnostics) was added into each well and incubated for 5 min at room temperature. […] The ED50 values were calculated using standard equations for mid-point of the activity inhibition curves.

In assay [5] the target is PPARγ (Chlorocebus sabaeus, UniProt A0A0D9RBU3). Description: Inhibition of rosiglitazone induced SEAP reporter transactivation in CV-1 cells. The format is cell-based, primate. As to conditions: read-out: ED50 for inhibition of rosiglitazone induced transactivation of SEAP gene, PPAR responsive SEAP reporter.
Description: The established CV-1 cells (primate kidney origin), that show expression of endogenous PPARγ, were stably transfected with a PPAR responsive secreted alkaline phosphatase (SEAP) reporter gene.
CV-1 cells (these cell express endogenous PPARγ gene) were transfected with a 3×PPRE-SEAP reporter gene DNA construct and stable colonies were selected, expanded and tested for responsiveness to compounds using standard protocols. SEAP reporter gene constructs were made by inserting 3 repeats of the rat fatty acid binding protein PPRE including the 7 nucleotides immediately 5′ to the SV40 early minimal promoter of pSEAP2 (Clontech). 1.2×10^6 CV-1/PPRE-SEAP cells were plated in a 96 well plate one day before compound addition. […] 150 μl aliquots of each concentration were delivered to two non-adjacent wells. […] Media was collected in fresh 96 well plates 40 hrs following incubation with compounds and assayed for SEAP activity. […] The plate was incubated for 5′ in the dark, and then the fluorescence measured in a CytoFluor series 4000 plate reader (Perseptive Biosystems): excitation filter, 450/50 nm; emission filter, 580/50 nm; 8 cycles, 1 minute/cycle, 3 reads/well/cycle. […] The ED50 values were calculated using standard equations for mid-point of the activity inhibition curves.
Assay [6] concerns the target T3, PPARα (Homo sapiens, UniProt Q07869).
T3 construct: HepG2 cells (human liver origin), that express endogenous PPARα gene were stably transfected with a PPAR responsive SEAP reporter gene; endogenous in cells; host or cells: HepG2 cells stably transfected with a PPAR responsive SEAP reporter
T3 sequence (Q07869 1-468): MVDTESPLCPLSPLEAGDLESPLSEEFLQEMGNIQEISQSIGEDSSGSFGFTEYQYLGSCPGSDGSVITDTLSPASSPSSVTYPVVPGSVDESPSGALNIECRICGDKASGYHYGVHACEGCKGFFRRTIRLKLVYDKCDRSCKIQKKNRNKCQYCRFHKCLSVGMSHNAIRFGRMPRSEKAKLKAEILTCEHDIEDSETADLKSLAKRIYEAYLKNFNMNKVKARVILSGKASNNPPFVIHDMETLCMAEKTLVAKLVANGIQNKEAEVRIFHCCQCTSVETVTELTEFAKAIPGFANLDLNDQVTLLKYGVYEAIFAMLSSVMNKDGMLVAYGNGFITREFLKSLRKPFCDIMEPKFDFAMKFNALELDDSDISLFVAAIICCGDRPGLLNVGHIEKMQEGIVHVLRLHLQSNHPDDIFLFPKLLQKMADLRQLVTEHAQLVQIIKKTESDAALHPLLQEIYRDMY
Description: PPARα dependent SEAP reporter transactivation in HepG2 cells. The format is cell-based.
Description: HepG2 cells (human liver origin), that express endogenous PPARα gene were stably transfected with a PPAR responsive SEAP reporter gene.
Reporter gene constructs were made by inserting either 3 repeats of the rat fatty acid binding protein PPRE including the 7 nucleotides immediately 5′, or 4 repeats of the gal4 response element upstream of the SV40 early minimal promoter of pSEAP2 (Clontech), 3×PPRE-SEAP and gal4-SEAP respectively. The chimeric receptor was made by cloning the cDNA encoding the ligand binding domain of human PPAR α in frame and 3′ to the gal4 DNA binding domain (amino acids 1-47) in the mammalian bicistronic expression vector pIRESlneo (Clontech), gal4-PPAR α. […] Following the incubation, media was removed, and endogenous phosphatases were inactivated as indicated above and SEAP activity in 25 μl aliquots of processed media was assayed in clear bottom, black 96 well plate (Falcon) by the addition of 100 μl Attophos reagent (Promega), incubation for 5 minutes in the dark at room temperature, and measuring the increase in fluorescence (excitation 450 nm, emission 580 nm) in a CytoFluor series 4000 plate reader (Perseptive Biosystems) 8 cycles, 1 minute/cycle. The relative rates of fluorescence emission were calculated as fold increase over DMSO control. […] The ED50 values were calculated using standard equations for mid-point of the activity curves.

The subject of assay [7] is obese diabetic db/db mice. Nature of the assay: Plasma glucose and lipids in treated obese diabetic db/db mice. The format is in vivo. As to conditions: 3 mg/kg/day. The source says:
As illustrated in Table 3 treatment of obese diabetic db/db mice with the dual PPARγ antagonist/PPARα agonist Compound Y results in no significant change in plasma glucose and a significant decrease in plasma triglycerides and free fatty acids levels. As indicated before, changes in lipid and glycemic conditions are two significant potential concerns of reducing PPARγ activity. Based on the study described here it is concluded that obese mammals can be safely treated with a dual PPARγ antagonist/PPARα agonist. The reduction in plasma triglycerides and free fatty acids are likely due to the […] activity of Compound Y.

Assay [8] deals with diet induced obese mice. Nature of the assay: Diet induced obese mice: body composition, plasma and liver parameters. The format is in vivo. The source says:
As indicated before, changes in lipid and glycemic conditions are two potential concerns of reducing PPARγ activity. Based on the study described here it is concluded that safe reduction of fat mass in an obese diabetic mammal (including human) is possible through administration of a dual PPARγ antagonist/PPARα agonist. This feature is in contrast to the observed hyperlipidemia and hyperglycemia in lipodystrophic patients and in patients with severe mutations in PPARγ gene.
In obese mice, as in obese human, the liver lipid level is elevated. Often, this is accompanied by an increase in plasma liver enzyme ALT level indicating to liver damage. Upon treatment with dual PPARγ antagonist/PPARα agonist Compound Y there was a substantial reduction in liver triglyceride content, although not reaching statistical significance, which was accompanied by a significant reduction in plasma liver enzyme ALT levels. Both these changes are indicative of improvement in liver function as a result of stimulation of PPARα mediated fatty acid oxidation and reduction of lipid synthesis leading to reduced lipid content (see. Torra et al., Current Opinion in Lipidology, 10: 151-159, 1999; Kersten et al., Nature, 405: 421424, 2000).
C57BL/6 mice were fed a diet rich in fat (40%) and sucrose (40%) (see, York {Genetic models of obesity} and Sclafani {Dietary models of obesity}, both in Obesity, Bjorntorp and Brodoff eds. JB Lippincott Company, 1992; McIntosh and Pederson; McNeill. eds. CRC press LLC, 337-398, 1999; Farrelly et al., Proc. Natl. Acad. Sci. 96: 14511-14516, 1999). Under these dietary conditions, C57BL/6 mice gain considerable body weight and become obese. These mice were treated with a dual PPARγ antagonist/PPARα agonist (dose 0.01 to 100 mg/kg/day), administered in a pharmacologically acceptable vehicle (such as but not limited to, 5% CM-cellulose) through orally, intravenous, subcutaneous or intraportal injection, or mixed with food or water, acutely or over an extended period of time. During the course of the study, various parameters such as water and food consumption, body weight gain, body composition by dual emission X-ray analyzer (DEXA, this instrument accurately measures body fat mass, body lean muscle mass and body bone mineral content), body temperature was measured by standard methods. Through tail vein bleeding, blood was collected in heparin-EDTA coated tubes to prevent clotting and blood plasma was separated and analyzed for glucose, free fatty acids, triglycerides and cholesterol using reagent kits available from Roche Diagnostics in a COBAS-MIRA instrument. Insulin and leptin are measured by commercially available ELISA kits. Compounds that act to reduce body weight and or decrease glucose were selected. At the end of the treatment period animals were euthanized by brief exposure to CO2 and internal organs such as liver and white adipose tissue were harvested for additional analysis. These analyses may include, but not limited to, determination of lipid content, and effect on various PPARγ and PPARα target gene expression.

Where [9] appears, read: 10 mg/kg/day once a day, 3 weeks.
The mark [10] stands for this setting: 10 mg/kg/day, 3 weeks, P < 0.05.
[11] abbreviates: 3 weeks at 10 mg/kg/day, once a day.

Sequence of PPARγ (A0A0D9RBU3 entry or part of it): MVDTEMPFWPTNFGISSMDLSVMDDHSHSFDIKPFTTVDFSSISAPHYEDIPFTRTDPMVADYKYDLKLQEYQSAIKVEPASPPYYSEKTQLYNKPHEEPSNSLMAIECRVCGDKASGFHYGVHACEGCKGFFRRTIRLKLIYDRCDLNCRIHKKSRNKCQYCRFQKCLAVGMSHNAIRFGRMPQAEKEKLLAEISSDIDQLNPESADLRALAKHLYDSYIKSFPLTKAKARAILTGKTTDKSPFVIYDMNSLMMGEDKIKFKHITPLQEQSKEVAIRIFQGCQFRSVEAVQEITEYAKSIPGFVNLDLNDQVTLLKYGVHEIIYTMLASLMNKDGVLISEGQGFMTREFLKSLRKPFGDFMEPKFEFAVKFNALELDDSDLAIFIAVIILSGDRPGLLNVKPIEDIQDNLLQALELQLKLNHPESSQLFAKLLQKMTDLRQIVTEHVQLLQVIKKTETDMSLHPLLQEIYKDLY

`CN(CCOc1ccc(CC2SC(=O)NC2=O)cc1)c1ccccn1` (stereo not drawn) [rosiglitazone, reference compound]: in assay [1], the “G-protein coupled receptor 26 gene expression in WAT” value was found to be 4.3 and the “Renin gene expression in WAT” value was 13.9.

For `CCCCCCCN(CCc1ccc(O[C@@](C)(CC)C(=O)O)cc1)C(=O)Nc1ccc(F)cc1F` [GW-2331, reference compound], the half-inhibitory concentration (IC50) (usually the point on the concentration scale where inhibition reaches its midpoint) in assay [2] worked out at 0.41 µM.

In assay [3], `CCCCCCCC1SC(CC(=O)N(Cc2ccccc2)Cc2ccccc2)C(=O)N1CCCCc1ccc(C(=O)O)cc1` (stereo not drawn) [GW0072, reference compound] came in with an IC50 of 0.28 µM. Further, in assay [4], the “ED50 for inhibition of differentiation” value amounted to 0.585 µM.

`Cc1oc(-c2ccccc2)nc1CCOc1cccc(Cc2nn(-c3ccccc3)nc2C(=O)O)c1` [Compound Y] had an IC50 in assay [3] of 0.069 µM. In assay [5], the EC50 amounted to 1.5 µM. The molecule also displayed an EC50 in assay [6] of 0.587 µM. In assay [7], the Free fatty acids amounted to 0.76 ± 0.12 meq/L; the Glucose is reported as 683.0 ± 25.2 mg/dL; the “Glucose, change versus vehicle” value is reported as −13%; the Triglyceride is on record as 145.3 ± 12.5 mg/dL. Besides, in assay [7] (p < 0.05), the “Free fatty acids, change versus vehicle” value is −36%* and the “Triglyceride, change versus vehicle” value was −45%*. For the same molecule, the IC50 in assay [2] stood at 0.069 µM. Besides, in assay [1], the “Adipophilin gene expression in WAT” value is listed as 4.1, the “Angiotensinogen precursor gene expression in WAT” value stood at 0.46, the “Glycerol-3 PO4 dehydrogenase gene expression in WAT” value is on record as 0.39 and the “HMGic gene expression in WAT” value is listed as 2.2. Further, in assay [1], the “Keratinocyte fatty acid binding protein gene expression in WAT” value is 3.3 and the “PAI-1 gene expression in WAT” value is listed as 0.45. Further, in assay [4], the “ED50 for inhibition of differentiation” value turned out to be 9.9 µM. Further, the “plasma lipid (free fatty acids, triglycerides and cholesterol) and glycemic (glucose and insulin) parameters (in words)” value in assay [8] is “very little change”. The same molecule showed a Liver triglycerides in assay [8] (10 mg/kg/day) of 55.4 ± 7.0 mg/g. In addition, in assay [8] (setting [9]), the “% Fat body mass” value is on record as 41.5 ± 1.8% and the “% Lean body mass” value stood at 56.0 ± 1.8%. For the same molecule, in assay [8] (setting [10]), the “% Fat body mass, change versus vehicle” value was “(−12%)*” and the “% Lean body mass, change versus vehicle” value is reported as “(+11%)*”. Further, in assay [8] (10 mg/kg/day, P < 0.05), the “ALT, change versus vehicle” value is “(−38%)*”. Besides, in assay [8] (10 mg/kg/day, not statistically significant), the “Liver triglycerides, change versus vehicle” value is “(−24%)”. In assay [8] (setting [11]), the “body weight (in words)” value was “no significant reduction in body weight”, the “increase in lean body mass” value is reported as 14% and the “reduction of body fat mass” value amounted to 15%. In assay [8] (plasma, 10 mg/kg/day), this molecule displayed an ALT of 98.0 ± 12.6 IU/L, a Cholesterol of 270.4 ± 9.4 mg/dL, a Glucose of 260.7 ± 12.3 mg/dL and an Insulin of 8.2 ± 1.2 ng/mL. The Triglyceride in assay [8] (plasma, 10 mg/kg/day) is 105.5 ± 8.1 mg/dL.

BMS-250773 [reference compound] returned an EC50 in assay [6] of 0.063 µM.
